Structures are written as SMILES. Calls of active or inactive are those of the source. Some results are limits rather than exact numbers.

For one test, the target named is Aspartyl aminopeptidase (Plasmodium falciparum 3D7, UniProt Q8I2J3).
The next test has as its target Procathepsin L (Homo sapiens, UniProt P07711).
The nature of test [1]: Luminescence Cell-Based Dose Retest to Confirm Inhibitors of Cancer Stem Cells. [Related pubchem assays (depositor defined):AID2717, AID2721]. The format is functional. The settings on record: Homo sapiens.
Test [2] can be described thus: A cytotoxicity screen of small molecule inhibitors of the PhoP region in Salmonella typhi identified in the primary screen. [Related pubchem assays: 1850, 1864, 1985 ]. The test is classed as functional.
The target in the next test is Genome polyprotein (dengue virus type 2, UniProt P29990). In words: Dengue-2 NS5 methyltransferase inhibitors, primary screen, biochemical, confirmation dose response (AID 588689). The format is functional.
Test [3] in a line: NIH-3T3 fibroblast cytotoxicity, dose response, cytotoxicity control, cell-based, fluorescence, Alamar Blue, secondary assay (AID 2327).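 Also: NIH-3T3 mouse fibroblasts cultured with fluconazole at 8 µg/mL.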 The test is classed as functional.
The nature of test [4]: C. albicans growth with fluconazole, confirmation, fluorescence, retest (AID 2467). The format is functional, cell-based.
Test [5] is described as follows: inhibitors of firefly luciferase expression or activity, dose response, H4 neuroglioma cells, luminescence (AID 1990). The test is classed as functional, cell-based.
Test [6] can be described thus: luciferase reporter signal reduction – luminescence, H4-C neuroglioblastoma cells, dose response (AID 2458).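 Also: H4 neuroglioblastoma cells stably carrying a luciferase reporter gene fusion.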 The format is functional, cell-based.
In test [7] the test system is BJ. Description: cytotoxicity toward BJ-TERT fibroblasts, dose response, cell-based, RAS-independent, luminescence (AID 1933). The settings on record: Homo sapiens. The test is classed as functional.
Another test in a line: cells. The format is functional, cell-based.
The nature of test [8]: Luminescence Cell-Based Dose Response HTS to Identify Inhibitors of 5'UTR Stem-Loop Driven Prion Protein mRNA Translation in H4 Neuroglioblastoma Cells. [Related pubchem assays: 1827 (Project Summary), 1813 (Primary HTS)]. The format is functional.
Test [9] is described as follows: inhibitors of SNCA 5'UTR-driven reporter translation, confirmation, H4 neuroglioma cells, luminescence (AID 1988). The format is functional, cell-based.
Test [10] deals with BJ. Description: cells. The format is functional, cell-based. The settings on record: Homo sapiens.
A short description of test [11]: Luminescence-based dose response cell-based high throughput screening assay for cytotoxic compounds using the IEC-6 intestinal epithelial cell line. [Related pubchem assays: 1858 (Summary AID.), 1825 (Counterscreen.), 1907 (Confirmation screen.)]. The test is classed as functional.
Test [12] concerns BJ. Description: cytotoxicity toward BJ-TERT-LT-ST fibroblasts, dose response, cell-based, RAS-independent, luminescence (AID 1935).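 Also: BJ fibroblasts immortalized with TERT plus LT and ST oncogenes.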 The test is classed as functional. The settings on record: Homo sapiens.
Test [13] can be described thus: cytotoxicity toward DRD oncogenic fibroblasts, dose response, cell-based, non-viral oncogenic, luminescence (AID 1934). The format is functional. The settings on record: Homo sapiens.
Test [14] in a line: inhibitors of SNCA 5'UTR-driven translation, confirmation, luminescence, H4 neuroglioblastoma cells, dose confirmation (AID 2454).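 Also: H4 neuroglioblastoma cells carrying an alpha-synuclein 5'UTR luciferase reporter; potency for inhibition of the luciferase signal.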 The test is classed as functional, cell-based.
Test [15] has as its system BJ. Description: cytotoxicity toward Ras-transformed BJeLR fibroblasts, dose response, cell-based, alamar blue fluorescence, cherrypicked samples (AID 2631).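 Also: confirmatory dose-response assay in RAS-dependent BJ fibroblasts engineered with TERT, LT and ST, with cytotoxicity read by fluorescence.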 The test is classed as functional. The settings on record: Homo sapiens.
Test [16] addresses Epstein-Barr nuclear antigen 1 (Epstein-Barr virus (strain B95-8) (HHV-4) (Human herpesvirus 4), UniProt P03211). In words: EBNA-1 inhibitors, dose response, biochemical, fluorescence polarization, 1536-well (AID 2381).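 Also: fluorescence polarization of a Cy5 DNA probe bound by EBNA-1 protein.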 Details: species or system human gammaherpesvirus 4.
The target of test [17] is Lytic switch protein BZLF1 (Epstein-Barr virus (strain B95-8) (HHV-4) (Human herpesvirus 4), UniProt P03206). In words: EBV ZTA inhibitors, dose response, counter-screen for EBNA-1 inhibitor project, biochemical, fluorescence polarization, Epstein-Barr virus, 1536-well (AID 2377).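 Also: fluorescence polarization of Cy5-labelled ZRE DNA probe bound by purified Zta.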 Details: species or system human gammaherpesvirus 4.
Test [18] has as its target T1, Mannose-6-phosphate isomerase (Homo sapiens, UniProt P34949).
T1 sequence (P34949 whole entry): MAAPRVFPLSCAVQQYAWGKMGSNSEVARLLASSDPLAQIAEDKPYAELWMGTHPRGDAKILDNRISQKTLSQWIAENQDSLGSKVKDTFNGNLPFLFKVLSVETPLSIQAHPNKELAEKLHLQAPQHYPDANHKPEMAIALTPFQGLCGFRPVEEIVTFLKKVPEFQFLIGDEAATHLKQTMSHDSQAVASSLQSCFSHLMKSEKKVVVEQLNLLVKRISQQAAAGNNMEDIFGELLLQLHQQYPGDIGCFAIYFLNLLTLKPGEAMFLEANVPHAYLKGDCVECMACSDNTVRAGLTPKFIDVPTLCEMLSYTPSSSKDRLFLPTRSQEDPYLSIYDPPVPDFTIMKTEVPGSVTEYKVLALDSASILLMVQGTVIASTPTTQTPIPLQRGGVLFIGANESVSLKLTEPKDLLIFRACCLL
Description: inhibitors of human PMI, primary screen, biochemical, fluorescence intensity, coupled assay (AID 1209).

For test [19], the target named is T1, Mannose-6-phosphate isomerase. In words: human PMI inhibitors, high substrate, primary screen, biochemical, fluorescence intensity, high mannose 6-phosphate (AID 1220).
For test [20], the target named is T2, Replicative DNA helicase DnaB (Mycobacterium tuberculosis, UniProt P9WMR3).
T2 sequence (P9WMR3 whole entry): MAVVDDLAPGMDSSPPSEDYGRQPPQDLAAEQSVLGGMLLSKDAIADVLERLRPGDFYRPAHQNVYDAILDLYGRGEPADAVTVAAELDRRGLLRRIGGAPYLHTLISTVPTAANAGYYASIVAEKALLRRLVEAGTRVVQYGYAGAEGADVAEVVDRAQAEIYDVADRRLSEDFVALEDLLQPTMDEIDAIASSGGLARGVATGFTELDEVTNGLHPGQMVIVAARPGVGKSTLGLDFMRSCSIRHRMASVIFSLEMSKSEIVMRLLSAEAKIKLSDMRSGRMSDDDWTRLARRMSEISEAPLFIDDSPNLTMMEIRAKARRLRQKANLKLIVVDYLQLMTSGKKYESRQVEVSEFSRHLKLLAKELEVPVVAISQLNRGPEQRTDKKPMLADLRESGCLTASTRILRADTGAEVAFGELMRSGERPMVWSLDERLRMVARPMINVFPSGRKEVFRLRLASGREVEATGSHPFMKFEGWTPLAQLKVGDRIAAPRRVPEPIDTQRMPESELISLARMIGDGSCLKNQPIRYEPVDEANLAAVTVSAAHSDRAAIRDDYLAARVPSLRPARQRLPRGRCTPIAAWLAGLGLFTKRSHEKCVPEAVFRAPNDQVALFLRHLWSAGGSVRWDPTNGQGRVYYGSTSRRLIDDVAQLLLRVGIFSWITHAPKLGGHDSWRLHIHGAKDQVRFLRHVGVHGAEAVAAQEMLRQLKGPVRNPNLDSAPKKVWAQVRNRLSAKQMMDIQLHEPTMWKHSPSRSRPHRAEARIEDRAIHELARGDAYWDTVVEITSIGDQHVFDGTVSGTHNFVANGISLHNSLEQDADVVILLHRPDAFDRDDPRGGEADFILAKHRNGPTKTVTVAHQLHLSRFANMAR
Description: DnaB intein splicing inhibitors, dose response, biochemical, cell-free fluorescence (AID 449749). The test is classed as functional.

The next test addresses T3, Protein RecA (Mycobacterium tuberculosis, UniProt P9WHJ3).
T3 sequence (P9WHJ3 whole entry): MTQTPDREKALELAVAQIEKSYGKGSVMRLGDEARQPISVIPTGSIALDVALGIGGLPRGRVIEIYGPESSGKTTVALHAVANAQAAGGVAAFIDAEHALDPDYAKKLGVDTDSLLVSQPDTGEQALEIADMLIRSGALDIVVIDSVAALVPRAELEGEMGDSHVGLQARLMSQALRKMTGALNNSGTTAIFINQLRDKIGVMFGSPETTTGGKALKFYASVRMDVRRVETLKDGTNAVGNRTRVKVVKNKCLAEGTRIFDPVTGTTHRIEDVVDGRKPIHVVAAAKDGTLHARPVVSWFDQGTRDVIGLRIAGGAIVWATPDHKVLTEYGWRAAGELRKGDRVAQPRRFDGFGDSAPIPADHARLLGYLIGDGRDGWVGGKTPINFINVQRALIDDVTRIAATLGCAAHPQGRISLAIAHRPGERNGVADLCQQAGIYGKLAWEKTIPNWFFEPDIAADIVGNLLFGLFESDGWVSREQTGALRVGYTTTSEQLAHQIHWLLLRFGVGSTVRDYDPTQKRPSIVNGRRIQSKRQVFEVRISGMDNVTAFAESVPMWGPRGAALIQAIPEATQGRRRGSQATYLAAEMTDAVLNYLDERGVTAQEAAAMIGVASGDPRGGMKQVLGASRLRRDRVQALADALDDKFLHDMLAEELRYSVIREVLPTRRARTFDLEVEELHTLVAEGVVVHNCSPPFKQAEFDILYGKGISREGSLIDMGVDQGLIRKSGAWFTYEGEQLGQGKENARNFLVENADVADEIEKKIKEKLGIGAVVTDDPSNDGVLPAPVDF
In words: Fluorescence Cell-Free Homogeneous Dose Retest to Identify Inhibitors of RecA-Intein Splicing Activity. [Related pubchem assays (depositor defined):AID2097, AID2223, AID489010, AID492950]. The test is classed as functional.

Test [21] deals with T4, Polyadenylate-binding protein 1 (Homo sapiens, UniProt P11940). Description: PABP1 MLLE–PAM2 interaction inhibitors, dose response, miRNA deadenylation inhibitor project, biochemical, fluorescence polarization, Cy5-PAM2 peptide, secondary (AID 602260). The format is functional. The settings on record: read-out: IC50_Mean.
Test [22] deals with T4, Polyadenylate-binding protein 1. In words: PABP1 MLLE–PAM2 binding inhibitor potency, dose response, biochemical, fluorescence polarization, FITC-PAM2 peptide (AID 602259). The format is functional. The settings on record: read-out: IC50_Mean.
In test [23] the target is T5, RNA-binding protein pos-1 (Caenorhabditis elegans, UniProt G5EF15).
T5 sequence (G5EF15 whole entry): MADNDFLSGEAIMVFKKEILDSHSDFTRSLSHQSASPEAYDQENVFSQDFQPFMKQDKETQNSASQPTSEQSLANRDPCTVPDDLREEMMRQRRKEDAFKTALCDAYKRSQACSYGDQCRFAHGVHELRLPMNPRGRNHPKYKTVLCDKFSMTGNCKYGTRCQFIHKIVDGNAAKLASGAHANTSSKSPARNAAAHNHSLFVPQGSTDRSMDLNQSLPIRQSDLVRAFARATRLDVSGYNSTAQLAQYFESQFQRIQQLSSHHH
Description: inhibitors of POS-1/mex-3 RNA binding, dose response, biochemical, fluorescence polarization (AID 1964).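 Also: purified POS-1 fused to maltose binding protein made in E. coli; potency of compounds blocking POS-1 binding to fluorescent RNA.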

For the next test, the target named is Large T antigen (Simian virus 40, UniProt P03070). The format is functional, Betapolyomavirus macacae.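 Also: Confirmatory-stage PubChem screen for compounds that inhibit SV40 T antigen.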
Sequence of Large T antigen (P03070 whole entry): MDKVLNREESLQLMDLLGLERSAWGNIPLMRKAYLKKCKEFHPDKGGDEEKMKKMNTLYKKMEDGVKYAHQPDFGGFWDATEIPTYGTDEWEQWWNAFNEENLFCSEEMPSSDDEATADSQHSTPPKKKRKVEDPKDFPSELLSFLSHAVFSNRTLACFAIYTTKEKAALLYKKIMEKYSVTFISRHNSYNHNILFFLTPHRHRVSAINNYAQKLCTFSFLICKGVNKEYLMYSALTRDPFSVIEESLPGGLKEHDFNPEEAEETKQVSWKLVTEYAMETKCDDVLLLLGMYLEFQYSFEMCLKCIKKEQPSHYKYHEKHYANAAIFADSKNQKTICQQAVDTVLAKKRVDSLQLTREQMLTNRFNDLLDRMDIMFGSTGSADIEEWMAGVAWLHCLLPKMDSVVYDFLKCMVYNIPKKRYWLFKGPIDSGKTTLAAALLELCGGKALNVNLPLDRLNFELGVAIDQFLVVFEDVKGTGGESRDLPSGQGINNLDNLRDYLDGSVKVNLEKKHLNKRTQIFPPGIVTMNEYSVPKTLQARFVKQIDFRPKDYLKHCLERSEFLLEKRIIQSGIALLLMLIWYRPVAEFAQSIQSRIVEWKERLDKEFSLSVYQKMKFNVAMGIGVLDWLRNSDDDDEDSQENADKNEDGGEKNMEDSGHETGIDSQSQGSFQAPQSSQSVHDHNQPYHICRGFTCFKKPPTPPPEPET

T4 sequence (P11940 whole entry): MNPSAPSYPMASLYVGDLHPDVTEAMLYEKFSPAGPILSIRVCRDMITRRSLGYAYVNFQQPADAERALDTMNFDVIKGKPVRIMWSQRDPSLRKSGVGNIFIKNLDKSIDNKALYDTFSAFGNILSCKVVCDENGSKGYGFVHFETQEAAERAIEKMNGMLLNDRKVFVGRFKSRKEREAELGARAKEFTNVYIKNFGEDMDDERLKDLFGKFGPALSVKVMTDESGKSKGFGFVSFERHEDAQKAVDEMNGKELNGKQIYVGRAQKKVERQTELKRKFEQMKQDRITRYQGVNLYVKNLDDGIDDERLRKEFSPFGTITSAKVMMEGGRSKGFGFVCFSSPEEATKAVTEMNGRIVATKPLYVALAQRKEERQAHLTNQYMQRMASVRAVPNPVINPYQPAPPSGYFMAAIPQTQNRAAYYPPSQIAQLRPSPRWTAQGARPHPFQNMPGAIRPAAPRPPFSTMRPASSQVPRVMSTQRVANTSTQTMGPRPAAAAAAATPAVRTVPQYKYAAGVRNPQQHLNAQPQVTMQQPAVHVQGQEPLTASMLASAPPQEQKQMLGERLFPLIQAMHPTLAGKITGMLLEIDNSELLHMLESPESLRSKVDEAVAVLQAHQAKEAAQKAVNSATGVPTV
Sequence of Aspartyl aminopeptidase (Q8I2J3 whole entry): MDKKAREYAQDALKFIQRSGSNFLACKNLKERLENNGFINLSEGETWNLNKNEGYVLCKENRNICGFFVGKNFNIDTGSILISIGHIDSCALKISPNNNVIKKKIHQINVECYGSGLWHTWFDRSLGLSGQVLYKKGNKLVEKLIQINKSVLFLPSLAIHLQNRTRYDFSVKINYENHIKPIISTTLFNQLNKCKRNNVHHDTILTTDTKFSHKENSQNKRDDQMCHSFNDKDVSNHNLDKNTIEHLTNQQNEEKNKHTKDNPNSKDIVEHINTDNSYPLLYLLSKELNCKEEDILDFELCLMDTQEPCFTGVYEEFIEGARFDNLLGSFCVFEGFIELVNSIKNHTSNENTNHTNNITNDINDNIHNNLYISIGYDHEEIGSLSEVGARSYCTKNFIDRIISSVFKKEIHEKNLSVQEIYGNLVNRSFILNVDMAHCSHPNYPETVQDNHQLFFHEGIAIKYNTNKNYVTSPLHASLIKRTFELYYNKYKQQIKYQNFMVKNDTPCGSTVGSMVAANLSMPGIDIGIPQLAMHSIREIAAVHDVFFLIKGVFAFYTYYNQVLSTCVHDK
Sequence of Lytic switch protein BZLF1 (P03206 whole entry): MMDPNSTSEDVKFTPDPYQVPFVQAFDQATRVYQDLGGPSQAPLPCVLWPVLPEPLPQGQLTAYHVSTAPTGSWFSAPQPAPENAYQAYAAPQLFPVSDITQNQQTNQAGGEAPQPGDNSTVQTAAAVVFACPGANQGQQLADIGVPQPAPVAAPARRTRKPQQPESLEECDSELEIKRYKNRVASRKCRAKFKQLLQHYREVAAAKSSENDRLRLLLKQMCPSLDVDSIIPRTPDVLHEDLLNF
Sequence of Epstein-Barr nuclear antigen 1 (P03211 whole entry): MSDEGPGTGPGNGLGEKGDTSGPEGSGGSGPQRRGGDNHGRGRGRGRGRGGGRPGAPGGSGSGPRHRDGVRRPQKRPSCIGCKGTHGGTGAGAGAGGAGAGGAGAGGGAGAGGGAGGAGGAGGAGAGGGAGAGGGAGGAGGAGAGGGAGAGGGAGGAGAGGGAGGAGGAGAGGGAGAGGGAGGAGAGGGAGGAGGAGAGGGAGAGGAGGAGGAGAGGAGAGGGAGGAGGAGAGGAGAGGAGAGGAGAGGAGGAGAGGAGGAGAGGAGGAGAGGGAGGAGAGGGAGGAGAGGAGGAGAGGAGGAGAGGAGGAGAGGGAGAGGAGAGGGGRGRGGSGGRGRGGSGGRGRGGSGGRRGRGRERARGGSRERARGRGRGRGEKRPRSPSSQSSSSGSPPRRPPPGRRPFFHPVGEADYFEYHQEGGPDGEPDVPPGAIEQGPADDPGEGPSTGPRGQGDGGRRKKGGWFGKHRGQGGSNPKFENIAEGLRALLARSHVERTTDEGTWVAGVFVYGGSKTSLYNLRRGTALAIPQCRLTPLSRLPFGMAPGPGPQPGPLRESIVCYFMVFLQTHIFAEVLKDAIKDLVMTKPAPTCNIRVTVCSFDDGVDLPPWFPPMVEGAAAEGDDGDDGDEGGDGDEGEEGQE
Sequence of Procathepsin L (P07711 whole entry): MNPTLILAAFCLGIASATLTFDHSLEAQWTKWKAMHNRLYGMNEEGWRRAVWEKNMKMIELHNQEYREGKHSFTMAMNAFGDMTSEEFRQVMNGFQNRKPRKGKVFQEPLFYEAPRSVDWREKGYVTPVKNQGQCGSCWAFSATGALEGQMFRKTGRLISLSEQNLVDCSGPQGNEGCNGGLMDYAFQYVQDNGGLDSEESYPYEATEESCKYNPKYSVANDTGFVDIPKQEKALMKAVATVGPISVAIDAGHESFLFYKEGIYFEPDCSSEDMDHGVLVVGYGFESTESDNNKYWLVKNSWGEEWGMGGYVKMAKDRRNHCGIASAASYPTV
Sequence of Genome polyprotein (P29990 2492-3391 limits assumed): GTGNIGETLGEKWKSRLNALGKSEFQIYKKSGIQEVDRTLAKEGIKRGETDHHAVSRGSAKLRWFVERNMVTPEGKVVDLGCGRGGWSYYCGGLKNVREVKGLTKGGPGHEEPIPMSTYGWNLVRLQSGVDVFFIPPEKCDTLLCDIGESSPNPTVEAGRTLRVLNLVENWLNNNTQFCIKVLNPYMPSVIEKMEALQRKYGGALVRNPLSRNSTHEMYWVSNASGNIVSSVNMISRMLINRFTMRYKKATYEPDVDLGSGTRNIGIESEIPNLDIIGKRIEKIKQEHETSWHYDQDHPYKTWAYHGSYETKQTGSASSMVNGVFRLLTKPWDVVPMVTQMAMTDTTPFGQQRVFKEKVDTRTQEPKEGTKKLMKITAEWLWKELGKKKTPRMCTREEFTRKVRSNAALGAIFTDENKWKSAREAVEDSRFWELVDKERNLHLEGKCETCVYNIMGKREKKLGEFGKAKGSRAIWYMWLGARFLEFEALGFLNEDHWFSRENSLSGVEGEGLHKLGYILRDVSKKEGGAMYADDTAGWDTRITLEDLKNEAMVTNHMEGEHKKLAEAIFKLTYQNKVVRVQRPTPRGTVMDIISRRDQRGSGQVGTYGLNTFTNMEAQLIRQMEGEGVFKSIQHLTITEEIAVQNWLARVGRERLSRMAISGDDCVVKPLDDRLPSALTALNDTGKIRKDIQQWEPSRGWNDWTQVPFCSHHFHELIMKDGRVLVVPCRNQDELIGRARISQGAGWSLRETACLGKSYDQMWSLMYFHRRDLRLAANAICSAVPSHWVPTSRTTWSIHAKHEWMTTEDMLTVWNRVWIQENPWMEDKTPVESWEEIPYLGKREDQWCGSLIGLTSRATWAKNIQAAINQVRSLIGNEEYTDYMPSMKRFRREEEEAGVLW

In the case of `COCC(C)NC(=O)NC1(C(F)(F)F)Oc2ccc(Cl)cc2O1` (stereo not given), the IC50 is 1.79 µM (active) on Aspartyl aminopeptidase and > 59.6 µM (not active) against Procathepsin L. The AC50 in test [1] is 6.69 µM (active).
In the case of `COc1cc(/C=C(/C#N)C(=O)Nc2ccccc2)c(Br)cc1OCc1ccc(C(=O)O)cc1`, the EC50 in test [2] is > 50 µM (active). Besides, the IC50 at Genome polyprotein is 66.6 µM (active).
Consider `Cc1ccc([N+](=O)[O-])cc1-c1[nH]c(-c2ccc(O)c(O)c2)nc1-c1ccccc1`, for which the EC50 was 57.8 µM (active) in test [3] and > 38 µM (not active) in test [4]. Also, the IC50 on Aspartyl aminopeptidase is 1.69 µM (active); against Procathepsin L it was > 59.6 µM (not active).
As for `O=C(NCCOc1cccnc1)c1ccc(OC2CCN(Cc3ccccn3)CC2)cc1`, the EC50 in [5] was 0.158 µM (active); in test [6], 0.821 µM (active); in the test with BJ [7], 78.3 µM (active); in the test “cells”, 0.577 µM (active); in test [8] it was 0.202 µM (inconclusive); in test [9], < 0.1 µM (active). Besides, the EC50 in the test with BJ [10] was 0.334 µM (inconclusive); in the test on BJ [12], 0.543 µM (inconclusive); in test [13] it was 3.96 µM (active); in test [14], 0.623 µM (active); in the test on BJ [15] it was 0.254 µM (active). The IC50 in test [11] is 0.0533 µM (active).
For `Cc1ccccc1N(C(=O)c1snc(C(N)=O)c1N)C(C(=O)NCC1CCCO1)c1ccc(N(C)C)cc1` (stereo not given), the IC50 in test [16] was 13.6 µM (not active); in [17] it was > 111 µM (not active).
Turning to `O=[N+]([O-])c1cccc(/N=C/C2=C(O)c3ccccc3CC2)c1`, the IC50 in test [18] was 10.3 µM (active); in [19] it was > 50 µM (not active). Further, the AC50 in test [20] was > 380 µM (inactive). In addition, at Protein RecA, the EC50 is 10.6 µM (active).
`O=C(NC(=S)Nc1ccc(S(=O)(=O)Nc2nccs2)cc1)c1cccnc1`: the EC50 in test [2] was > 50 µM (active). The IC50 in [21] and in [22] was > 66 µM (inactive) throughout.
In the case of `CC1CCCC(C)N1S(=O)(=O)c1ccc(NC(=O)CCn2cnc3ccccc3c2=O)cc1` (stereo not given), the IC50 in test [16] is on record as 16.4 µM (not active); in test [17], > 111 µM (not active).
With `Cc1ncc(CO)c(/C=N/NC(=O)c2cc(O)c(O)c(O)c2)c1O`, in test [23], the EC50 is 71.2 µM (active). The IC50 was 3.72 µM (active) on Large T antigen and 4.5 µM (active) in [18].

Values taken from ChEMBL document CHEMBL1201862, “PubChem BioAssay data set” (2004).
